Data on two compounds can be found in patent US20100311708A1, “USE OF NOR-BILE ACIDS IN THE TREATMENT OF ARTERIOSCLEROSIS” (priority 2007, published 2010).

What all share (assay type): in vivo
Assay [1] relates to ApoE−/− mice. Kind of assay: Treatment of ApoE−/− mice with nor-UDCA in comparison to UDCA (Experiment 3). To be noted: for % plaques in the aortic arch (plaque area versus total area, en-face red oil): FIG. 12; for plaques in red-oil stained aortic valve cross-sections (histological analysis): FIG. 13 top. The source says:
(§1) ApoE-deficient mice as described in Experiment 1 were used.
ApoE−/− mice (n=15) were fed with normal diet for 8 weeks post natum, followed by western chow diet (“high fat diet”) for another 8 weeks. The mice were then segregated into three groups with each group comprising five mice. In the control group, the mice were further fed with the western chow diet for additional four weeks. In the second group, the ApoE−/− mice were fed with a western chow diet comprising 0.5% w/w nor-UDCA for additional four weeks. Finally, in the third group, the ApoE−/− mice were fed with a western chow diet comprising 0.5% w/w UDCA for additional four weeks. Considering a food intake of 4 g/day of chow per mouse, this corresponds to 20 mg/day of nor-UDCA or UDCA, respectively, per mouse.
The experimental setup is depicted in FIG. 6.

Assay [2] relates to ApoE−/− mice. Put plainly: Prevention of atherosclerosis in ApoE−/− mice by nor-UDCA in comparison to UDCA (Experiment 4). To be noted: prevention study, 0.5% w/w in western chow diet for 12 weeks.
Source text: as §1
ApoE−/− mice (n=15) were fed with normal diet for 8 weeks post natum and then segregated into three groups with each group comprising five mice. In the control group, the mice were fed with the western chow diet for additional 12 weeks. In the second group, the ApoE−/− mice were fed with a western chow diet comprising 0.5% w/w nor-UDCA for additional 12 weeks. Finally, in the third group, the ApoE−/− mice were fed with a western chow diet comprising 0.5% w/w UDCA for additional 12 weeks. Considering a food intake of 4 g/day of chow per mouse, this corresponds to 20 mg/day of nor-UDCA or UDCA, respectively, per mouse.
Thus, in this experimental prevention setup, the mice are fed with diet known to force atherosclerotic plaque formation together with either UDCA or nor-UDCA (mice of the second and third group) having preventive effects on the plaque formation. When compared to a control fed with western chow diet only, the preventive effects can be studied.
The experimental setup is depicted in FIG. 14(a).

Assay [3] relates to ApoE−/− mice. Put plainly: Treatment of ApoE−/− mice with nor-UDCA (Experiment 1). To be noted: 0.5% w/w in western chow diet for 4 weeks after 8 weeks western chow diet, vs control. How it is done: In order to study the effects of nor-UDCA on atherosclerosis, ApoE-deficient mice were treated. To this end ApoE−/− mice as described in Piedrahita et. al. (PNAS, 1992, 89, 4471-4475) which carry the Apoe^tm1Unc mutation were back-crossed 10 times into the C57BL76J. ApoE-deficient mice can also be obtained from the Jackson Laboratory (Maine, US) with the strain name B6.129P2.-Apoe^tm1Unc/J(http://jaxmice.jax.org).
ApoE−/− mice (n=10) were fed with normal diet for 8 weeks post natum, followed by western chow diet for another 8 weeks. The western chow diet consists of 21% by weight fat, 1.5% by weight cholesterol and no cholic acid (“high fat diet”).
This type of western chow diet is known to force atherosclerotic plaque formation on the indicated time line in ApoE−/− mice. After eight weeks of being fed with western chow diet, the mice were segregated into two groups with each group comprising five mice. In the control group A, the mice were further fed with the western chow diet for additional four weeks. In the other group B, the ApoE−/− mice were fed with a western chow diet comprising 0.5% w/w nor-UDCA for additional four weeks. Considering a food intake of 4 g/day of chow per mouse, this corresponds to 20 mg/day of nor-UDCA per mouse.
The experimental setup is depicted in FIG. 1.

For assay [4], the system named is LDLR−/− mice. Kind of assay: Treatment of LDLR−/− mice with nor-UDCA (Experiment 2). To be noted: 0.5% w/w in western chow diet for 4 weeks after 8 weeks western chow diet; vs control; FIG. 5. The source says: In a second experiment (FIGS. 4 and 5), the effect of nor-UDCA in LDLR−/− mice that were raised on a western chow diet was investigated.
As for the ApoE-deficient mice, the LDLR-deficient mice are considered to be a bona-fide animal model of atherosclerosis development. If these mice are raised on a western chow diet they evolve typical symptoms of atherosclerosis involving atherosclerotic plaque formation in the aorta (FIG. 5).
LDLR−/− mice were produced as described in Ishebashi et. al. (J. Clin. Jnnvest., 1993, 92, 883-893). The 129-derived AB1 ES cell line was used. The strain was backcrossed to C57BL/6J mice for 10 generations. Ldlr^tm1Her/Ldlr^tm1Her involves: 129S7/SvEvBrd*C57BL/6. LDLR-deficient mice can also be obtained from the Jackson Laboratory (Maine, US) with the strain name B6.129S7-Ldlr^tm1Her/J (http://jaxmice.jax.org).
As in Experiment 1, ten mice being deficient in LDLR were raised on normal diet during the first 8 weeks post natum followed by the western chow diet for another eight weeks. Afterwards, the ten mice were separated into two groups for which the control group A received further feeding on a western chow diet for 4 weeks. In the test group B, the western chow diet of the following 4 weeks was supplemented with 0.5% w/w nor-UDCA. Considering a food intake of 4 g/day of chow per mouse, this corresponds to 20 mg/day of nor-UDCA per mouse. […]

Where [5] appears, read: treatment study, 0.5% w/w in western chow diet for 4 weeks.

In the case of `C[C@H](CCC(=O)O)[C@H]1CC[C@H]2[C@@H]3[C@@H](O)C[C@@H]4C[C@H](O)CC[C@]4(C)[C@H]3CC[C@]12C` [UDCA, reference compound], in assay [1] (setting [5]), the “% plaques in the aortic arch (plaque area versus total area, en-face red oil)” value was “decreasing the percent of plaques” and the “plaques in red-oil stained aortic valve cross-sections (histological analysis)” value is reported as “the amount of plaques is reduced”. Also, in assay [2] (FIG. 18), the “weight of the brown adipose tissue” value is “neither UDCA nor nor-UDCA had an influence”.
In the case of `C[C@H](CC(=O)O)[C@H]1CC[C@H]2[C@@H]3[C@@H](O)C[C@@H]4C[C@H](O)CC[C@]4(C)[C@H]3CC[C@]12C` [nor-UDCA, 24-nor[3α,7β-dihydroxy-5β-cholan-23-oic] acid], the “arteriosclerotic plaques in red-oil stained aorta cross-sections (histological analysis)” value in assay [3] (20 weeks post natum, FIG. 2) is “significantly reduced extent of these plaques”. Also, the “sclerotic area versus the aorta area (morphometric analysis)” value in assay [3] (FIG. 3) is listed as “significantly smaller”. Moreover, the “extent and size of atherosclerotic plaque, aorta en-face stained with red oil” value in assay [4] is “significantly reduced”. Besides, the “number of hepatic neutrophil granulocytes (CD11b-positive cells in liver)” value in assay [1] (0.5% w/w in western chow diet for 4 weeks after 8 weeks western chow diet, FIG. 7) was “clearly reduced”. Further, the “expression level of p-JNK in liver tissue (Western blot)” value in assay [1] (0.5% w/w in western chow diet for 4 weeks after 8 weeks western chow diet, FIG. 8) was “capable of downregulating the expression of p-JNK”. Besides, in assay [1] (setting [5]), the “% plaques in the aortic arch (plaque area versus total area, en-face red oil)” value is reported as “decreasing the percent of plaques”. Moreover, the “aortic valve plaque area versus total surface area (plaques in % of the surface area)” value in assay [1] (treatment study, 0.5% w/w in western chow diet for 4 weeks, FIG. 13 quantification) is “significant reduction of said % plaques”. Further, in assay [1] (setting [5]), the “plaques in red-oil stained aortic valve cross-sections (histological analysis)” value is recorded as “the amount of plaques is reduced”. Further, in assay [1] (treatment study, 0.5% w/w in western chow diet for 4 weeks, compared to control or UDCA-treated mice, FIG. 9), the hepatic triglyceride levels entry is given as “capable of significantly reducing the triglyceride-amount in the liver”. The “serum transaminase (alanin-amino-transferase) levels” value in assay [1] (treatment study, 0.5% w/w in western chow diet for 4 weeks, compared to control, FIG. 10) was “trend of reducing the serum transaminase levels”; in assay [2] (compared to control and UDCA, FIG. 16), “significantly reduces the serum transaminase levels”. Further, the “total serum cholesterol levels” value was “seems to be capable of lowering the total cholesterol” in assay [1] (treatment study, 0.5% w/w in western chow diet for 4 weeks, compared to control, FIG. 11) and “does not seem to reduce serum cholesterol levels” in assay [2] (FIG. 17). In assay [2] (FIG. 15 a-c), the “hepatic triglyceride amounts, liver preparations stained with oil-red (histology)” value was “hepatic triglyceride amounts are decreased”. The “weight of the brown adipose tissue” value in assay [2] (FIG. 18) is “neither UDCA nor nor-UDCA had an influence”. The “extent and size of atherosclerotic plaques, aorta en-face stained with red oil” value in assay [2] (FIG. 19) is reported as “significantly reduced”. For the same compound, in assay [2] (compared to control or UDCA-treated mice, FIG. 18), the “amount (weight) of white adipose tissue” value is listed as “strong reduction of the amount of white adipose tissue”. In assay [2] (compared to control or UDCA-treated mice, FIG. 15 d), the “hepatic triglyceride levels (quantification in liver homogenate)” value is “capable of significantly reducing the triglyceride-amount in the liver”. Further, in assay [2] (vs control, FIG. 20), the “sclerotic area versus the total aorta area (morphometric analysis)” value is recorded as “significantly smaller”.
